Read-outs that look alike come from different tables or passages of the source.
How the values were obtained:
VEGF receptor KDR = target: T1, VEGF receptor KDR (Homo sapiens, UniProt P35968); assay: In vitro receptor tyrosine kinase assay, VEGF receptor KDR (DELFIA); format: biochemical; conditions: GST-VEGFR2 806-1356, ATP 0.6 uM
T1 construct: made in house; host or cells: Sf9 cells (Spodoptera frugiperda), recombinant baculovirus
Text: In the case of VEGF receptor KDR a 1.6-kb cDNA corresponding to the catalytic domain of VEGFR2 or KDR (Genbank accession number AF035121 amino acid 806 to 1356) is cloned into the Pst I site of the pDEST20 Gateway vector (Invitrogen) for the production of a GST-tagged version of that enzyme.
The GST-VEGFR2806-1356 protein is expressed in Sf9 cells (Spodoptera frugiperda) upon infection with recombinant baculovirus construct.
The supernatant is loaded onto a GST-agarose column (Sigma) equilibrated with PBS pH 7.3. Following a four column volume (CV) wash with PBS pH 7.3+1% Triton X-100 and 4 CV wash with buffer B (50 mM Tris pH 8.0, 20% glycerol and 100 mM NaCl), bound proteins are step eluted with 5 CV of buffer B supplemented with 5 mM DTT and 15 mM glutathion. […] Final GST-VEGFR2806-1356 protein preparations concentrations are about 0.7 mg/ml with purity approximating 70%.

A549 = A549 inhibition of wound healing; format: cell-based; conditions: read-out: A549 INHIB WND ING IC50 UM
DU145 = DU145 scattering; format: cell-based; conditions: DU145 cells, read-out: CMET DU145 SCATT HEAL- IC50 UM
c-Met = target: T2, c-Met (Homo sapiens, UniProt P08581); assay: c-Met phosphorylation direct ELISA in MKN45 cells; format: cell-based; conditions: 3 h treatment
T2 construct: endogenous in cells; host or cells: MKN45 gastric carcinoma cells
T2 sequence (P08581 25-1390): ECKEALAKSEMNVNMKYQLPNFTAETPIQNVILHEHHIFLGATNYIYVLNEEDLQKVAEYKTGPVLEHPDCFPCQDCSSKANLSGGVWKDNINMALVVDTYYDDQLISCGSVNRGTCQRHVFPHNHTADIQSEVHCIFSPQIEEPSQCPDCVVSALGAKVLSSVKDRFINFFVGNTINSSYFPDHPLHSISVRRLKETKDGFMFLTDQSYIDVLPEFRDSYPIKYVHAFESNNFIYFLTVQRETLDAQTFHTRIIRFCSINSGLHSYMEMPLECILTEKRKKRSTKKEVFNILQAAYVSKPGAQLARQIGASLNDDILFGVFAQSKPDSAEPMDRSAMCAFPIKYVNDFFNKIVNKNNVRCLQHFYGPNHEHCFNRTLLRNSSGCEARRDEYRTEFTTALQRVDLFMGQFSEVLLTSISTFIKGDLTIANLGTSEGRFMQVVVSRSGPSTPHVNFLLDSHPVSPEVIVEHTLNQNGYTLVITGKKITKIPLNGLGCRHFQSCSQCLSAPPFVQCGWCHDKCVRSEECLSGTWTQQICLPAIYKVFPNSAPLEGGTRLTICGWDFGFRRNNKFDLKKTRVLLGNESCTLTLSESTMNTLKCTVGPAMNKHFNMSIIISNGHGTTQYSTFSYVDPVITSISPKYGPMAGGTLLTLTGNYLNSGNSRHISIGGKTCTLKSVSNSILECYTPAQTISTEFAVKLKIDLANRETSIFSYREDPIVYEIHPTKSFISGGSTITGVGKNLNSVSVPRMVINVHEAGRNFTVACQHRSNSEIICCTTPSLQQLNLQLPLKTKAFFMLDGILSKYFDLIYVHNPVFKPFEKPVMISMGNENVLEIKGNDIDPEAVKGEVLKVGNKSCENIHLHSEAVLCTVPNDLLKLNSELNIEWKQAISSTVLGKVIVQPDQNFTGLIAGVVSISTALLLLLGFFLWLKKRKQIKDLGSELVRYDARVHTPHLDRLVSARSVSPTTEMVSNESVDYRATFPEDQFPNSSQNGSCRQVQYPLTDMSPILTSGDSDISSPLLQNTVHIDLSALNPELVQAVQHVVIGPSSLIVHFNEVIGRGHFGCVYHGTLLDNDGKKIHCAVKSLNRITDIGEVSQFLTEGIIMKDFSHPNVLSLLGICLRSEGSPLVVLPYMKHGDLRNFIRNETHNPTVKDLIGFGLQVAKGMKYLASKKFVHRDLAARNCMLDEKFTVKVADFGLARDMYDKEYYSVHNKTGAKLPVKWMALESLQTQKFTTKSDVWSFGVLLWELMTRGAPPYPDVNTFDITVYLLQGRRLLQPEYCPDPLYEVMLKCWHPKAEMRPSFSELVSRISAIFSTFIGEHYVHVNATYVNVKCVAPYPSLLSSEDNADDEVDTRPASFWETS
Procedure: Alternatively, the following assay is used to determine inhibition of c-Met phosphorylation.
The c-Met receptor is expressed in numerous cancer cell lines derived from tumors of epithelial origin. In MKN45 gastric carcinoma cells the c-Met gene is amplified, resulting in several-fold overexpression of the receptor and its constitutive activation.
Cell treatments: MKN45 cells are seeded into wells of 96-well plates at a density of 3×10^4 cells/well in RPMI medium supplemented with 10% FBS. […] Inhibitors are added to the medium in triplicate wells at the indicated doses.
After an overnight protein binding incubation at 4° C., lysates are aspirated and wells are blocked for 1 h at 37° C. in TBST supplemented with 5% BSA. Plates are incubated with the primary antibodies anti-phospho-Tyrosine (Millipore, 4G10) diluted 1/15000 in TBST supplemented with 5% BSA for 1 h at room temperature. Plates are washed 3 times on a plate washer (SkanWasher, Molecular Devises), and incubated with the reporter antibody […] (Sigma) diluted 1/15000 in TBST supplemented with 5% BSA, for 1 h at room temperature. Plates are washed 3 times with TBST using on a plate washer and subsequently incubated with chemiluminescent substrate solution (ECL, Roche). Luminescence signal is captured on a Polar Star Optima apparatus (BMG LabTech).
Average values of the triplicate samples are used to prepare IC50 curves using a 4-parameter fit model. These curves are calculated using, for example, GraFit 5.0 software. For assay standardization purpose, an internal control is included on each experimental test plate.

[1] = target: recombinant human c-Met/HGF receptor (Homo sapiens, UniProt P08581); assay: In vitro receptor tyrosine kinase assay, c-Met/HGF receptor (DELFIA)
Sequence of recombinant human c-Met/HGF receptor (P08581 1078-1337): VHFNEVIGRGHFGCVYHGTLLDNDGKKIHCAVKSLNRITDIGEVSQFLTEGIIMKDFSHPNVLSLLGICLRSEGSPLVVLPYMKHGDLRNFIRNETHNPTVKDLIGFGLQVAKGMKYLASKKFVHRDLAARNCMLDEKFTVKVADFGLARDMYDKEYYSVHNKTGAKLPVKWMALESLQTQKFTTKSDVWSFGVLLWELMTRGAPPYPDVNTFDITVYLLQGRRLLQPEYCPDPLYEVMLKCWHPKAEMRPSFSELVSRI

T1 sequence (P35968 806-1356): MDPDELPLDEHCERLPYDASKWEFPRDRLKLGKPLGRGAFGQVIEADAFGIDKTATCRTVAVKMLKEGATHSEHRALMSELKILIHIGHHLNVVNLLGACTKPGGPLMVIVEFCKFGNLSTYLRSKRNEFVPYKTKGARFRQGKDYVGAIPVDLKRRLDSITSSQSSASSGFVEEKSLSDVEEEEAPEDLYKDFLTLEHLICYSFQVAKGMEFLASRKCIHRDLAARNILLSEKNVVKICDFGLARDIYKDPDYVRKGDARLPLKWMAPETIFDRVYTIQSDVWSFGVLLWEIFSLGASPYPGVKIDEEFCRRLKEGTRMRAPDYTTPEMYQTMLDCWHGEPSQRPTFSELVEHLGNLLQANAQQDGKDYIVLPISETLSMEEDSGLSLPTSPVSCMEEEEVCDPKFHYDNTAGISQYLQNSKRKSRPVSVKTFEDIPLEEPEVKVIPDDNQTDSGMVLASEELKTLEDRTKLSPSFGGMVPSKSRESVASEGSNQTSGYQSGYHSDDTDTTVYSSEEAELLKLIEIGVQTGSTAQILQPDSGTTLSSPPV

Compound	IC50 (VEGF receptor KDR; read-out: VEGFR IC50) [nM]	IC50 (A549; Homo sapiens, A549 cells) [nM]	IC50 (DU145; Homo sapiens, DU-145) [nM]	IC50 (c-Met) [nM]	IC50 [1] [nM]	IC50 (A549; A549 cells) [nM]	IC50 (DU145) [nM]	IC50 (A549; Homo sapiens, A549, A549 cells) [nM]	IC50 (VEGF receptor KDR; read-out: VEGFR (IC50)) [nM]
COC[C@H](C)NCc1cccc(-c2cc3nccc(Oc4ccc(NC(=O)N5CCN(c6ccccc6)C5=O)cc4F)c3s2)c1	< 250	250 to 500	250 to 500	< 250	< 250	–	–	–	–
CN(C)CCOC(=O)N1CC=C(c2cc3nccc(Oc4ccc(NC(=O)N5CCN(c6ccccc6)C5=O)cc4F)c3s2)CC1	< 250	250 to 500	250 to 500	< 250	< 250	–	–	–	–
COCCNCc1ccc(-c2cc3nccc(Oc4ccc(NC(=O)c5cnn(-c6ccccc6)c5C(F)(F)F)cc4F)c3s2)nc1	> 1000	250 to 500	250 to 500	250 to 500	< 250	–	–	–	–
CS(=O)(=O)c1ccc(-c2cc3nccc(Oc4ccc(NC(=O)c5cnn(-c6ccccc6)c5C(F)(F)F)cc4F)c3s2)nc1	> 1000	< 250	250 to 500	–	< 250	–	–	–	–
Cn1cnc(-c2cc3nccc(Oc4ccc(NC(=O)c5cnn(-c6ccccc6)c5)cc4F)c3s2)c1 [drawing 202]	500 to 1000	–	–	–	–	> 1000	> 1000	–	–
Cn1cnc(-c2cc3nccc(Oc4ccc(NC(=O)c5cnn(C)c5C(F)(F)F)cc4F)c3s2)c1	500 to 1000	> 1000	> 1000	–	< 250	–	–	–	–
O=C(O)c1ccc(-c2cc3nccc(Oc4ccc(NC(=O)c5cnn(-c6ccccc6)c5C(F)(F)F)cc4F)c3s2)nc1	> 1000	> 1000	> 1000	> 1000	< 250	–	–	–	–
COCCNC(=O)c1ccc(-c2cc3nccc(Oc4ccc(NC(=O)c5cnn(-c6ccccc6)c5C(F)(F)F)cc4F)c3s2)nc1	> 1000	–	> 1000	–	–	–	–	> 1000	–
COCCN(C)Cc1ccc(-c2cc3nccc(Oc4ccc(NC(=O)NNc5ccccc5)cc4F)c3s2)cc1	> 1000	250 to 500	> 1000	< 250	250 to 500	–	–	–	–
Cn1cnc(-c2cc3nccc(Oc4ccc(NC(=O)c5cnn(-c6ccccc6)c5C(F)(F)F)cc4F)c3s2)c1	> 1000	250 to 500	> 1000	500 to 1000	< 250	–	–	–	–
CN(C)C(=O)c1ccc(-c2cc3nccc(Oc4ccc(NC(=O)c5cnn(-c6ccccc6)c5C(F)(F)F)cc4F)c3s2)cc1	> 1000	–	250 to 500	–	–	–	–	< 250	–
O=C(Nc1ccc(Oc2ccnc3cc(-c4cccc[n+]4[O-])sc23)c(F)c1)N1CCN(c2ccc(F)cc2)C1=O	< 250	< 250	< 250	< 250	< 250	–	–	–	–
CN(C)C(=O)c1ccc(-c2cc3nccc(Oc4ccc(NC(=O)c5cnn(-c6ccc(F)cc6)c5C(F)(F)F)cc4F)c3s2)cc1	> 1000	> 1000	> 1000	–	< 250	–	–	–	–
COCCN(C)C(=O)c1ccc(-c2cc3nccc(Oc4ccc(NC(=O)c5cnn(-c6ccccc6)c5C(F)(F)F)cc4F)c3s2)nc1	> 1000	250 to 500	> 1000	–	< 250	–	–	–	–
Cn1ccnc1-c1cc2nccc(Oc3ccc(NC(=O)c4ncc(-c5ccccc5)s4)cc3F)c2s1	> 1000	–	–	–	> 1000	–	–	–	–
COCCNCc1cccc(-c2cc3nccc(Oc4ccc(NC(=O)N5CCN(c6ccccc6)C5=O)cc4F)c3s2)c1	< 250	250 to 500	< 250	< 250	< 250	–	–	–	–
O=C(Nc1ccc(Oc2ccnc3cc(-c4cnn(C5CCNCC5)c4)sc23)c(F)c1)N1CCN(c2ccccc2)C1=O	< 250	> 1000	250 to 500	< 250	< 250	–	–	–	–
Cc1c(C(=O)Nc2ccc(Oc3ccnc4cc(-c5cn(C)cn5)sc34)c(F)c2)cnn1-c1ccccc1	> 1000	–	> 1000	–	–	–	–	250 to 500	–
O=C(Nc1ccc(Oc2ccnc3cc(-c4ccc(CNCC(F)(F)F)cc4)sc23)c(F)c1)N1CCN(c2ccccc2)C1=O	250 to 500	> 1000	> 1000	500 to 1000	–	–	–	–	–
CS(=O)(=O)c1ccc(-c2cc3nccc(Oc4ccc(NC(=O)N5CCN(c6ccccc6)C5=O)cc4F)c3s2)cc1	250 to 500	–	–	< 250	250 to 500	–	–	–	–
Cn1ccnc1-c1cc2nccc(Oc3ccc(NC(=O)c4cnn(-c5ccccc5)c4C(F)(F)F)cc3F)c2s1	> 1000	–	> 1000	–	–	–	–	> 1000	–
CN(C)C(=O)c1ccc(-c2cc3nccc(Oc4ccc(NC(=O)c5cnn(-c6ccccc6)c5C(F)(F)F)cc4F)c3s2)nc1	> 1000	–	250 to 500	–	–	–	–	250 to 500	–
Cn1ccnc1-c1cc2nccc(Oc3ccc(NC(=O)c4ccc(-c5ccccc5)cc4F)cc3F)c2s1	> 1000	–	–	–	< 250	–	–	–	–
CS(=O)(=O)CCNCc1ccc(-c2cc3nccc(Oc4ccc(NC(=O)c5cnn(-c6ccccc6)c5C(F)(F)F)cc4F)c3s2)cc1	> 1000	–	> 1000	–	–	–	–	> 1000	–
Cn1cnc(-c2cc3nccc(Oc4ccc(NC(=O)c5cnn(-c6ccccc6)c5)cc4F)c3s2)c1 [drawing 192]	> 1000	–	> 1000	–	–	250 to 500	–	–	–
CCOC(=O)c1ccc(-c2cc3nccc(Oc4ccc(NC(=O)c5cnn(-c6ccccc6)c5C(F)(F)F)cc4F)c3s2)cc1	> 1000	> 1000	> 1000	–	> 1000	–	–	–	–
Cn1cnc(-c2cc3nccc(Oc4ccc(NC(CC(=O)Nc5ccccc5)C(F)(F)F)cc4F)c3s2)c1 (stereo not drawn) [Compound 8, 4,4,4-Trifluoro-3-(3-fluoro-4-(2-(1-methyl-1H-imidazol-4-yl)thieno[3,2-b]pyridin-7-yloxy)phenylamino)-N-phenylbutanamide]	–	–	–	–	–	–	–	–	< 250
Cn1cnc(-c2cc3nccc(Oc4ccc(NC(=O)CC(Nc5ccccc5)C(F)(F)F)cc4F)c3s2)c1 (stereo not drawn) [Compound 12, 4,4,4-Trifluoro-N-(3-fluoro-4-(2-(1-methyl-1H-imidazol-4-yl)thieno[3,2-b]pyridin-7-yloxy)phenyl)-3-(phenylamino)butanamide]	–	–	–	–	–	–	–	–	< 250
